Source: article PMC11251039, “Harnessing cholesterol uptake of malaria parasites for therapeutic applications” (EMBO Molecular Medicine, 2024)
Several values for one entry are separate records, joined by “and”; a condition that tells them apart may be missing. Equal entries are not always repeated. Where two headings read alike, the source gives them in different places.

Key:
[1] = system: human embryonic kidney cells (HEK293); assay: Human embryonic kidney cell viability assay (MTT); assay type: cell-based; settings: Homo sapiens; 96 h, HEK293; read-out: IC50, human embryonic kidney cell inhibition (viability)
Procedure: HEK293 cell viability assays commenced with 5000 cells per well. 10 µg/mL cycloheximide was used as a no-growth control. Metabolic capacity (indicating viability) was measured in an absorbance microplate reader after incubation with 0.45 mg/mL methylthiazolyldiphenyl-tetrazolium bromide (MTT; Sigma M2128) for 2 h followed by crystal solubilisation in SDS. […]
Human Embryonic Kidney Cell Viability Assays:
Human Embryonic Kidney Cell (HEK293) culture:
The HEK293 cell line was maintained under routine culture conditions in DMEM containing 3.7 g/L NaHCO3 supplemented with 10% FBS, 200 μM glutamine, 100 units/mL penicillin, and 100 μg/mL streptomycin at 37 °C in a humidified 5% CO2 incubator.
Cells were detached from a flask using 0.25% Trypsin with 0.2 g/L EDTA (Sigma T4049) and washed with culture media containing no phenol red. Cells were incubated with a serial dilution of each compound, or media/DMSO alone. The protein synthesis inhibitor cycloheximide (Sigma 01810) at 10 µg/mL was used as a positive control to determine background absorbance. 5,000 cells were seeded in each well. After 96 hours, 0.45 mg/mL methylthiazolyldiphenyl-tetrazolium bromide (MTT; Sigma M2128) was added and incubated for a further two hours, before mixing 1.1:1 with 10% w/v sodium dodecyl sulfate (SDS) to solubilise crystals and freezing the plate at -18 °C to stop the assay. […]

[2] = system: Toxoplasma gondii tachyzoites (RH strain); assay: Toxoplasma growth inhibition assay (tdTomato fluorescence, in HFF cells); assay type: cell-based; settings: Toxoplasma gondii, HFF, 72 h, read-out: IC50, T. gondii tachyzoite growth inhibition
Procedure: Fluorescence was measured daily with a fluorescence microplate reader for one week, and the background fluorescence from the time 0 reading was subtracted from all other measurements. […]
Toxoplasma Growth Inhibition Assays:
Growth inhibition was investigated as described previously (26). Fluorescent Toxoplasma gondii parasites were inoculated into an optical bottom 96-well plate containing confluent human foreskin fibroblast (HFF) host cells at a density of 2,000 parasites/well, with a serial dilution of each compound, or culture media/DMSO (0.1% v/v) alone. Plates were measured daily with a FluoStar Optima fluorescence plate reader at 540 nm excitation and 590 nm emission for one week, and the background fluorescence from the time 0 reading was subtracted from all other measurements. […]

[3] = system: P. berghei liver stages; assay: Plasmodium berghei liver stage growth inhibition assay (luminescence, in Huh7 cells); settings: for P. berghei liver stage growth, dose-response data points (Figure 3A): replicate data points; for P. berghei liver stage growth, dose-response data points (Figure 3A) / Figure 3E dose-response value (replicates): listed as HJB8a53
Procedure: Growth inhibition or cell viability were assessed by incubation with a serial dilution of test compounds, solvent controls (DMSO, ethanol, ethyl acetate), or culture media alone in 96-well plates, with detection of fluorescence, luminescence, or absorbance in microplate readers after 24–96 h unless otherwise specified.
Huh7 cells were seeded at a density of 10,000 cells per well of a 96-well plate, or 20,000 cells per collagen-coated coverslip. After 24 h, test compounds were added the wells were inoculated with P. berghei liver stage sporozoites dissected from infected A. stephensi salivary glands with 5000–10,000 sporozoites per well or 10,000–20,000 sporozoites per coverslip. Uninfected wells served as a control for background luminescence. Luminescence signal was measured 48 h post-invasion by addition of 1:1 ONE-Glo^TM substrate (Promega) with a luminescence microplate reader. Coverslips were fixed, stained, and imaged, with all parasites on each coverslip imaged and delineated as described (Petersen et al, [2017]) using Fiji ImageJ (Schindelin et al, [2012]). Data are presented as a percentage of the size or parasite number of the solvent control to normalize for differences between experiments.
Growth inhibition data were normalised by subtracting background fluorescence, luminescence, absorbance, or percentage of cells from a no-growth or no-viability control (high drug concentration, no-parasite control, or time = 0 measurement as specified), and expressed as a percentage of the growth or cell percentage in the negative control (culture media alone or solvent control) at the indicated timepoint (or to the highest measurement reached during the assay for Fig. EV3).
Plasmodium berghei ANKA Bergreen (22) or GFP-Luc (RMgm-29) (23), respectively
expressing green fluorescent protein (GFP) or a GFP-Luciferase fusion protein, were
maintained under routine conditions in SWR/J Mus musculus mice and Anopheles stephensi
Growth inhibition of P. berghei liver-stages was investigated after infection of human
hepatoma cells (Huh7) and subsequent growth for 48 hours at 37° C, 5% CO2 and 80%
humidity. The day prior to infection, 10,000 Huh7 cells were seeded in dark-sided 96-well
microplates (Greiner Bio One). On the day of infection, compounds or solvent controls
(DMSO) were serially diluted in culture media and 5,000 – 10,000 Bergreen or GFP-Luc
sporozoites were added per well following dissection from infected A. stephensi salivary
glands. Uninfected wells served as control for background luminescence. To promote invasion,
the plates were centrifuged at 1,550 g for 5 minutes. After 60 minutes, the media was
completely replaced with fresh, prewarmed media with the matching drug concentrations.
Media was partially replaced with new drug dilutions over the following two days. 48 hours
post-infection, luminescence signal was measured by addition of 1:1 ONE-GloTM substrate
(Promega) to the wells, followed by detection at 300 – 700 nm using a Synergy HTX plate

[4] = system: asexual P. falciparum 3D7 wild-type parasites; assay: P. falciparum asexual growth inhibition assay (SYBR Safe DNA replication); assay type: cell-based, Plasmodium falciparum; settings: for P. falciparum asexual growth, percentage of control: replicate values, source data Fig. 2B, listed as HJB8a53; for IC50: Plasmodium falciparum, read-out: IC50, P. falciparum asexual growth inhibition
Outline: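 Sorbitol-synchronised ring-stage cultures at 1% parasitaemia and 1% haematocrit were exposed to 2-fold compound dilutions at 37 °C under microaerophilic conditions for 24, 48 or 72 h. Growth was read by SYBR Safe fluorescence of freeze-thaw lysates, with 200 nM chloroquine or artesunate defining background.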

SMILES: CC(C)OC(=O)CCC(=O)O[C@H]1CC[C@H]2[C@@H]3CC=C4C[C@@H](O)CC[C@]4(C)[C@H]3CC[C@]12C [C-17-link]
- IC50 [1]: 43.6 µM
- IC50 [2]: 24.2 µM
- P. berghei liver stage growth, dose-response data points (Figure 3A) ([3]; 0.015241580 uM): 96.98 and 119.7 and 83.36 and 88.47 and 108.4 and 103.1 and 97.22 and 85.28 and 117.5
- P. berghei liver stage growth, dose-response data points (Figure 3A) ([3]; 0.045724740 uM): 121.9 and 106 and 104.9 and 85.8 and 115.6 and 102.5 and 72.1 and 100.2 and 87.82
- P. berghei liver stage growth, dose-response data points (Figure 3A) ([3]; 0.137174210 uM): 107.2 and 102.6 and 90.17 and 92.54 and 104.7 and 117.6 and 63.06 and 70.96 and 103.2
- Figure 3E dose-response value (replicates) ([3]; 0.292968750 uM): 91.07 and 89.1 and 95.27 and 90.14
- P. berghei liver stage growth, dose-response data points (Figure 3A) ([3]; 0.411522630 uM): 124.2 and 100.4 and 115.1 and 111.4 and 113.3 and 113.5 and 80.27 and 84.75 and 95.46
- Figure 3E dose-response value (replicates) ([3]; 0.585937500 uM): 99.86 and 89.88 and 84.85 and 85.63 and 89.93 and 92.67 and 90.44 and 102.5 and 92 and 98.72 and 111.5 and 102.9
- Figure 3E dose-response value (replicates) ([3]; 1.171875000 uM): 96.5 and 101.8 and 91.15 and 89.59 and 89.72 and 89.39 and 88.5 and 90.85 and 89.8 and 102.1 and 102.3 and 93.29
- P. berghei liver stage growth, dose-response data points (Figure 3A) ([3]; 1.234567900 uM): 118.5 and 135.5 and 116.3 and 100.4 and 96.61 and 100.7 and 64.72 and 81.15 and 106.8
- Figure 3E dose-response value (replicates) ([3]; 2.343750000 uM): 99.05 and 88.35 and 98.38 and 79.46 and 78.82 and 91.42 and 85.51 and 85.36 and 86.3 and 87.79 and 95.63 and 94.28
- P. berghei liver stage growth, dose-response data points (Figure 3A) ([3]; 3.703703700 uM): 114 and 106 (2×) and 125.3 and 90.63 and 118.1 and 93.53 and 101.3 and 118.6
- Figure 3E dose-response value (replicates) ([3]; 4.687500000 uM): 81 and 89.1 and 99.07 and 91.89 and 81.35 and 88.41 and 75.07 and 84.23 and 79.29 and 90.54 and 102.2 and 92.05
- Figure 3E dose-response value (replicates) ([3]; 9.375000000 uM): 89.91 and 74.54 and 79.38 and 86.26 and 88.67 and 93.48 and 71.57 and 72.81 and 73.33 and 83.01 and 90.9 and 81.08
- P. berghei liver stage growth, dose-response data points (Figure 3A) ([3]; 11.111111100 uM): 92.44 and 108.3 and 77.69 and 72.06 and 110.1 and 86.05 and 62.44 and 84.4 and 99.5
- Figure 3E dose-response value (replicates) ([3]; 18.750000000 uM): 68.62 and 75.11 and 71.21 and 83.74 and 80.37 and 86.75 and 49.64 and 47.74 and 45.02 and 68.49 and 77.9 and 71.84
- P. berghei liver stage growth, dose-response data points (Figure 3A) ([3]; 33.333333300 uM): 25.52 and 39.13 and 33.46 and 43.83 and 48.03 and 60.49 and 20.73 and 60.95 and 57.96
- Figure 3E dose-response value (replicates) ([3]; 37.500000000 uM): 25.13 and 30.9 and 15.88 and 48.26 and 43.84 and 49.75 and 11.26 and 13.01 and 10.8 and 38.05 and 39.89 and 41.67
- Figure 3E dose-response value (replicates) ([3]; 75.000000000 uM): 2.196 and 1.744 and 3.137 and 1.33 and 2.981 and 3.396 and -0.3545 and -0.4946 and 0.272 and 5.931 and 5.012 and 6.082
- P. berghei liver stage growth, dose-response data points (Figure 3A) ([3]; 100.000000000 uM): -0.5671 and 0.5671 and -2.836 and -0.2967 and -0.1696 and 0.5935 and 0.3513 and 0.08782 and 0.4391
- IC50 ([3]; Plasmodium berghei, Huh-7, 48 h, read-out: IC50, P. berghei liver stage growth inhibition): 29.2 µM
- P. falciparum asexual growth, percentage of control ([4]; 1.562500000 uM, 24 h): 108.2% and 98.65% and 104.4% and 77.73% and 107.4% and 72.24% and 105.4% and 89.91% and 101.4%
- P. falciparum asexual growth, percentage of control ([4]; 3.125000000 uM, 24 h): 87.28% and 79.93% and 102.9% and 88.97% and 110.9% and 91.2% and 98.89% and 92.59% and 99.55%
- P. falciparum asexual growth, percentage of control ([4]; 6.250000000 uM, 24 h): 91.48% and 91.92% and 90.32% and 56.7% and 84% and 91.24% and 89.81% and 87.22% and 88.93%
- P. falciparum asexual growth, percentage of control ([4]; 12.500000000 uM, 24 h): 92.85% and 68.5% and 79.1% and 86.73% and 62.26% and 77.95% and 77.18% and 79.4% and 77.07%
- P. falciparum asexual growth, percentage of control ([4]; 25.000000000 uM, 24 h): 63.84% and 71.98% and 51.99% and 71.68% and 75.89% and 90.82% and 60.89% and 60.24% and 75.04%
- P. falciparum asexual growth, percentage of control ([4]; 50.000000000 uM, 24 h): 21.83% and 36.37% and 18.23% and 26.53% and 42.29% and 44.3% and 28.27% and 41.39% and 35.03%
- P. falciparum asexual growth, percentage of control ([4]; 100.000000000 uM, 24 h): 3.756% and 9.306% and -2.555% and -31.33% and 5.372% and 1.633% and -19.35% and 8.501% and 11.78%
- IC50 ([4]; 3D7, 24 h, 24 h, starting at ring stages): 31.6 µM
- IC50 ([4]; 3D7, 48 h, 48 h): 40.2 µM
- IC50 ([4]; 3D7, 72 h, 72 h): 30.3 µM
